Data set [1] concerns PC-3 prostate cancer cells. In words: MTT cell growth inhibition assay, PC-3 cells. Format: cell-based, human. As to the method:
PC-3 (androgen receptor negative, AR−ve) cells were obtained from American Type Culture Collection (ATCC, Rockville, Md., USA). Cells were maintained in RPMI 1640 medium (Gibco, Invitrogen, Carlsbad, Calif., USA) supplemented with 10% fetal bovine serum (Atlanta Biologicals, Lawrenceville, Ga., USA) and 1% penicillin/streptomycin. Cells were grown as a monolayer in T75 tissue culture flasks in a humidified incubator (5% CO2, 95% air) at 37° C.
(§1) PC-3 cells were seeded in 24 well plates (Corning Costar) at a density of 2×10^4 cells per well per 1 mL of medium. Cells were allowed to adhere to the plate for 24 hours and then treated with different concentrations of ATRA, HDIs or mutual prodrugs dissolved in 10% DMSO, 90% ethanol. Cells were treated for five days with renewal of prodrug and media on day 3. On the fifth day, medium was renewed and 100 μL of MTT (3-(4,5-dimethylthiazol-2-yl)-2,5-diphenyl-2H-tetrazolium bromide from Sigma) solution (0.5 mg MTT/mL of media) was added to the medium such that the ratio of MTT:medium was 1:10. The cells were incubated with MTT for 2 hours. The medium was then aspirated and 500 μL of DMSO was added to solubilize the violet MTT-formazan product. The absorbance at 560 nm was measured by spectrophotometry (Victor 1420 multilabel counted, Wallac). For each concentration of agent or mutual prodrugs there were triplicate wells in each independent experiment. GI50 values were calculated by nonlinear regression analysis using GraphPad Prism software.
(§2) The MTT (3-[4,5-dimethylthiazol-2-yl]-2,5-diphenyltetrazolium bromide) assay was used to measure the cell viability. PC-3 cells or MDA-MB-231 cells (1.0×10^3 cells/ml) were seeded into 96 well plates. Cells were treated with the compounds on day 2 at different concentrations. On the 5th day, the medium was removed and […] of a 0.5 mg/ml MTT solution was added to each well. The plates were incubated at 37° C. for 2 hours and 200 μL of DMSO was added. The yellow tetrazolium salt (MTT) is reduced to a purple formazan product by the mitochondrial dehydrogenase from living cells. The product is then detected by spectrophotometry at 560 nm.
To assess the effect of mutual prodrugs on cell growth, PC-3 and MDA-MB-231 cells were treated with mutual prodrugs for […], respectively. […] In this cell line, the order of potency was VNLG/66>VNLG/114>VNLG/122>VNLG/124>VNLG/60. The efficacies of mutual prodrugs were compared to the efficacies of ATRA or HDIs alone in PC-3 prostate cancer cells. […] The reason(s) for these differential potencies of the different mutual prodrugs in PC-3 cells are unknown at this time, but may be idiosyncratic, possibly due to extents and efficiencies of cell membrane penetration and/or intracellular cleavage of mutual prodrugs.

Data set [2] has as its system MDA-MB-231 breast cancer cells. Kind of data set: MTT colorimetric cell viability assay, MDA-MB-231 cells. In kind it is cell-based. As to the method:
(§3) Other cell lines used in this study include, MDA-MB-231 (estrogen receptor negative, ER−ve), MCF-7 (ER+ve) were also purchased from ATCC and were cultured as previously described.^44, 45 LTLC and LTLT-Ca were kindly provided by Dr. Angela Brodie, University of Maryland, Baltimore, and details of their phenotypes and culturing conditions are as previously reported.^46, 47 MCF-7TAM and MCF-7HoxB-7 were provided by Dr. Sara Sukumar of Johns Hopkins University, Baltimore, and details of their phenotypes and culturing conditions are as previously reported.^48 Except for MCF-7 breast cancer cell all other breast cancer cells used in this study are insensitive to endocrine therapeutic agents and to most anti-cancer agents.
as §2, with “viability.” for “viability. PC-3 cells or”, “compound” for “compounds”
as §2

A further data set has as its system MCF-7. In words: MTT cell growth inhibition, MCF-7 cells. Format: cell-based. As to the method:
as §3, §1
(§4) Given the potency of most of the mutual prodrugs of the present invention, in MDA-MB-231 and PC-3 cell lines, their effects on the growth of some known drug-resistant breast cancer cell lines, including MCF-7TAMR, MCF-7Hox-B7, LTLC and LTLT-Ca was tested compared to parental MCF-7 cells.

A further data set concerns MCF-7TAMR. Kind of data set: MTT cell growth inhibition, MCF-7TAMR cells. Format: cell-based. As to the method: as §3, §1, §4
The test system of a further data set is MCF-7HOX-B7. Kind of data set: MTT cell growth inhibition, MCF-7HOX-B7 cells. In kind it is cell-based. As to the method: as §3, §1, §4
Where [3] appears, read: Homo sapiens, PC-3, dose-response curves, at least three independent experiments, SEM < 10%, read-out: GI50 Values, PC-3 prostate cancer cells.
Setting [4] is: Homo sapiens, MDA-MB-231, dose-response curves, at least three independent experiments, SEM < 10%, read-out: GI50 Values, MDA-MB-231 breast cancer cells.
Where [5] appears, read: Homo sapiens, MDA-MB-231, read-out: GI50, MDA-MB-231 cells.

Structures are written as SMILES. “Also recorded” adds a separate entry of the source. Read-outs that look alike come from different tables or passages of the source.

Take `CC1=C(/C=C/C(C)=C/C=C/C(C)=C/C(=O)O)C(C)(C)CCC1` [ATRA, all-trans retinoic acid, reference compound]: the results for the GI50 in data set [1] (setting [3]) and in data set [2] (setting [4]) were 7.6 µM and 10.8 µM, respectively.
In the same order, the values of `CC(=O)Nc1ccc(C(=O)Nc2ccccc2N)cc1` [CI-994, N-(2′-aminophenyl)-4-acetylaminobenzamide, reference compound] are 0.29 µM and 0.17 µM.
Consider `Nc1ccccc1NC(=O)c1ccc(CNC(=O)OCc2cccnc2)cc1` [MS-275, N-(2-aminophenyl)4-[N-(pyridine-3-yl-methoxy-carbonyl)aminomethyl]benzamide, reference compound], for which the GI50 in data set [1] (Homo sapiens, PC-3, read-out: GI50, PC-3 cells) amounted to 0.19 µM; in data set [1] (setting [3]) it was 0.19 µM; in data set [2] (setting [4]) it was 0.009 µM.
Regarding `CCCC(=O)[O-].[Na+]` [Sodium butyrate (BA), Sodium butyrate, reference compound], the GI50 in data set [1] (Homo sapiens, PC-3, read-out: GI50 Values, PC-3 prostate cancer cells) was 72.4 µM; in data set [2] (setting [4]) it was above 1000 µM.
In the case of `CC(=O)Nc1ccc(C(=O)Nc2ccccc2NC(=O)CNC(=O)OCOC(=O)/C=C(C)/C=C/C=C(C)/C=C/C2=C(C)CCCC2(C)C)cc1` [VNLG/60, (N-{[N-(2-{[4-(Acetylamino)phenyl]carbonylamino}phenyl)carbamoyl]methyl}carbamoyloxy)methyl(2E,4E,6E,8E)-3,7-dimethyl-9-(2,6,6-trimethylcyclohex-1-enyl)nona-2,4,6,8-tetraenoate], the GI50 stood at 4.27 µM in data set [1] (setting [3]); 0.63 µM in data set [2] (setting [5]); 4.3 µM in data set [2] (Homo sapiens, MDA-MB-231, MTT assay, FIG. 1C, read-out: GI50, MDA-MB-231 (FIG. 1C)); 0.63 µM in data set [2] (setting [4]); 0.25 µM in the data set on MCF-7 (Homo sapiens, MCF7); 0.17 µM in the data set on MCF-7TAMR. This compound also returned a GI50 in the data set on MCF-7HOX-B7 of 1.2 µM. The “growth inhibitory effect versus parent drugs alone or in combination” value in data set [2] (MDA-MB-231) is listed as “synergistic growth inhibitory effect”.
As to `CC1=C(/C=C/C(C)=C/C=C/C(C)=C/C(=O)Oc2ccc(COC(=O)Nc3ccccc3NC(=O)c3ccc(NCC(=O)OCc4cccnc4)cc3)cc2)C(C)(C)CCC1` [VNLG/114, 4-{[N-(2-{[4-({[(3-Pyridylmethyl)oxycarbonyl]methyl}amino)phenyl]carbonylamino}phenyl)carbamoyloxy]methyl}phenyl(2E,4E,6E,8E)-3,7-dimethyl-9-(2,6,6-trimethylcyclohex-1-enyl)nona-2,4,6,8-tetraenoate], the melting point was in the range of 128 to 130 °C. Moreover, the GI50 in data set [1] (setting [3]) was 0.18 µM. Moreover, the GI50 in data set [2] (setting [4]) turned out to be 0.17 µM. Also, the “growth inhibitory effect versus parent drugs alone or in combination” value in data set [2] (MDA-MB-231) was “synergistic growth inhibitory effect; also recorded: significant increase”. Also, in the data set on MCF-7 (Homo sapiens, MCF7), it took 0.06 µM to inhibit growth by half (GI50). The GI50 in the data set on MCF-7TAMR was found to be 0.21 µM. In the data set on MCF-7HOX-B7, this compound had a GI50 of 0.72 µM.
With `CC(=O)Nc1ccc(C(=O)Nc2ccccc2NC(=O)OCc2ccc(OC(=O)/C=C(C)/C=C/C=C(C)/C=C/C3=C(C)CCCC3(C)C)cc2)cc1` [VNLG/122, 4-{[N-2-{[4-(Acetylamino)phenyl]carbonylamino}phenyl0carbamoyloxy]methyl}phenyl(2E,4E,6E,8E) -3,7-dimethyl-9-(2,6,6-trimethylcyclohex-1-enyl)nona-2,4,6,8-tetraenoate], the GI50 in data set [1] (PC-3, dose-response curves, at least three independent experiments, SEM < 10%, read-out: GI50 Values, PC-3 prostate cancer cells) worked out at 0.87 µM; in data set [2] (MDA-MB-231, dose-response curves, at least three independent experiments, SEM < 10%, read-out: GI50 Values, MDA-MB-231 breast cancer cells), 0.02 µM; in data set [2] (MDA-MB-231, read-out: GI50, MDA-MB-231 cells), 0.02 µM; with MCF-7 (MCF-7), 0.52 µM; with MCF-7TAMR (MCF-7TAMR) it was 0.08 µM; in the data set on MCF-7HOX-B7 (MCF-7HOX-B7), 8.13 µM. In addition, the “GI50 fold difference to VNLG/60” value in data set [2] (MDA-MB-231) is reported as 31.5 fold. Moreover, the “GI50 fold lower than ATRA” value in data set [2] (MDA-MB-231) is on record as 543 fold. Besides, in data set [2] (MDA-MB-231), the “GI50 fold lower than CI-994” value was determined as 8.5 fold.
Consider `CCCC(=O)OCc1ccc(OC(=O)/C=C(C)/C=C/C=C(C)/C=C/C2=C(C)CCCC2(C)C)cc1` [VNLG/124, 4-(Butanoyloxymethyl)phenyl(2E,4E,6E,8E)-3,7-dimethyl-9-(2,6,6-trimethylcyclohex-1-enyl)nona-2,4,6,8-tetraenoate], for which the inhibition at 20 µM in data set [1] (Homo sapiens, PC-3, 20 μM, FIG. 8) was around 80%. Besides, the GI50 in data set [1] (Homo sapiens, PC-3, FIG. 9, combination = increasing ATRA with BA 10.0 μM, read-out: GI50, PC-3 dose-response curves (FIG. 9)) was found to be 1.7 µM; in data set [1] (setting [3]) it was 1.02 µM; in data set [2] (setting [5]), 0.01 µM; in data set [2] (Homo sapiens, MDA-MB-231, head-to-head with 3, FIG. 7, read-out: GI50 for inhibition of growth of MDA-MB-231 cells, head-to-head (FIG. 7)), 0.048 µM; in data set [2] (setting [4]), 0.01 µM. The “growth inhibitory effect versus parent drugs alone or in combination” value in data set [1] (PC3) and in data set [2] (MDA-MB-231) was “significant increase” each time. Further, the “GI50 fold lower than the combination of ATRA and BA” value in data set [1] (PC-3, FIG. 9) came out at 15 fold. Also, the “GI50 fold lower than ATRA” value in data set [2] (MDA-MB-231) is listed as 1085 fold. For the same compound, the “GI50 fold lower than BA” value in data set [2] (MDA-MB-231) is “over 100,000 fold”. For the same compound, the “GI50 fold lower than that of 3” value in data set [2] (MDA-MB-231, FIG. 7) was determined as 25 fold.
With `CCCC(=O)OCOC(=O)C=C(C)C=CC=C(C)C=CC1=C(C)CCCC1(C)C` [compound 3, retinoyloxymethyl butyrate, reference compound], in data set [2] (MDA-MB-231, head-to-head with VNLG/124, FIG. 7, read-out: GI50 for inhibition of growth of MDA-MB-231 cells, head-to-head (FIG. 7)), the GI50 stood at 1.18 µM.
Consider `CC1=C(/C=C/C(C)=C/C=C/C(C)=C/C(=O)Oc2ccc(CO)cc2)C(C)(C)CCC1` [compound 16, 4-(Hydroxymethyl)phenyl(2E,4E,6E,8E)-3,7-dimethyl-9-(2,6,6-trimethylcyclohex-1-enyl)nona-2,4,6,8-tetraenoate], for which the concentration for 50% growth inhibition (GI50) in data set [1] (setting [3]) amounted to 1.02 µM. Further, the “GI50 fold lower than that of butyric acid (BA)” value in data set [1] (PC-3) was found to be 74 fold.

The term GI50 denotes the concentration giving 50% growth inhibition. As usually defined, the melting point is the temperature, or range, at which the solid turns liquid. What is called inhibition is the drop in the measured response relative to a control, in per cent. Low readings indicate little suppression, high ones strong suppression.

Values taken from patent US20100184812A1, “MUTUAL PRODRUGS AND METHODS TO TREAT CANCER” (UNIVERSITY OF MARYLAND, BALTIMORE, priority 2007, published 2010).
